Assays:
Assay in all cases: relative viability (nuclei count vs DMSO), 5 days (fraction); higher = more cells survive
[1] = compound: COc1cc2nc(N3CCCN(C)CC3)nc(NC3CCN(Cc4ccccc4)CC3)c2cc1OC
How it was run: (§1)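 Five library-drug doses, separated by factors of √10, were pinned into 1536-well plates holding lung cancer cell lines after an overnight stay at 37 °C. Cells were fixed, permeabilised and Hoechst-stained in one step after 5 days without medium change, then imaged at 4×. Viability compares treated-well with vehicle-well nuclei, counted in MetaXpress, as a median across plates. Passing plates had control CV below 25% and at least one doubling.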

AZD6482 = compound: Cc1cc([C@@H](C)Nc2ccccc2C(=O)O)c2nc(N3CCOCC3)cc(=O)n2c1 [AZD6482]
How it was run: as §1

AZD6482 + Bortezomib = compound: Cc1cc([C@@H](C)Nc2ccccc2C(=O)O)c2nc(N3CCOCC3)cc(=O)n2c1 [AZD6482] + CC(C)C[C@H](NC(=O)[C@H](Cc1ccccc1)NC(=O)c1cnccn1)B(O)O [Bortezomib] (partner 0.002 µM)
How it was run: (§2)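 A single step with final 0.05% Triton X-100, 1% formaldehyde and 1 ug/ml Hoechst fixed the cells and stained nuclei 5 days after treatment. Lung cancer cell lines in 1536-well plates had been treated by pin tool the day after seeding with one drug alone or a fixed anchor-drug dose plus five library-drug doses (not always all listed) in √10 steps, and nuclei were counted on 4× images. Relative viability is the ratio of nuclei in treated wells to nuclei in vehicle wells, taken as the median of duplicate plates.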

[2] = compound: COc1cc2nc(N3CCCN(C)CC3)nc(NC3CCN(Cc4ccccc4)CC3)c2cc1OC + Cc1nc(NC(=O)N2CCC[C@H]2C(N)=O)sc1-c1ccnc(C(C)(C)C(F)(F)F)c1 [Alpelisib] (partner 2 µM)
How it was run: as §2

Cell Line	relative viability ([1]; 0.2 µM)	relative viability ([1]; 0.6325 µM)	relative viability ([1]; 2 µM)	relative viability ([1]; 6.325 µM)	relative viability (AZD6482; 0.08 µM)	relative viability (AZD6482; 0.253 µM)	relative viability (AZD6482; 0.8 µM)	relative viability (AZD6482; 2.53 µM)	relative viability (AZD6482; 8 µM)	relative viability (AZD6482 + Bortezomib; first compound 0.08 µM)	relative viability (AZD6482 + Bortezomib; first compound 0.253 µM)	relative viability (AZD6482 + Bortezomib; first compound 0.8 µM)	relative viability (AZD6482 + Bortezomib; first compound 2.53 µM)	relative viability (AZD6482 + Bortezomib; first compound 8 µM)	relative viability ([2]; first compound 0.2 µM)	relative viability ([2]; first compound 0.6325 µM)	relative viability ([2]; first compound 2 µM)	relative viability ([2]; first compound 6.325 µM)
Calu-6	0.968	0.942	1.09	0.913	0.951	0.938	0.992	0.824	0.875	0.889	0.973	0.978	0.823	0.889	0.884	0.926	1	0.976
EBC-1	0.948	0.9	0.976	0.827	0.881	0.923	0.855	0.467	0.449	0.498	0.532	0.463	0.358	0.381	0.82	0.798	0.787	0.697
SW 1573	0.906	0.983	1.02	0.651	0.916	0.908	0.818	0.677	0.674	0.92	0.86	0.877	0.613	0.633	0.614	0.696	0.729	0.724
A-427	0.922	1.06	1.01	0.882	0.965	0.884	1.02	0.651	0.974	0.992	1.01	0.978	0.741	0.961	1.12	0.98	0.997	1.08
NCI-H2347	1.02	0.975	1.04	1	0.627	0.785	0.805	0.617	0.664	0.755	0.681	0.873	0.619	0.496	0.929	1.02	1.03	0.831
NCI-H1355	0.891	0.992	1	0.95	0.872	0.852	1.01	0.733	0.777	1.06	1.06	1.16	0.874	1.03	0.83	0.861	0.856	0.805
PC-3 [JPC-3]	1.06	1.02	1.06	0.959	0.899	1.06	1.08	0.814	0.985	0.658	0.844	0.843	0.761	0.713	1.06	0.97	1.09	0.986
NCI-H2228	0.9	1.12	1.07	0.753	0.745	0.965	1.17	0.775	0.901	0.754	0.986	0.91	0.849	1.13	0.587	0.685	0.661	0.409
HOP-62	0.965	0.954	1.1	0.96	1.11	1.1	1.09	0.833	1.01	0.795	1.12	0.752	0.939	1.18	0.878	0.932	0.829	0.877
HARA	0.895	1.13	1.08	0.919	0.844	0.978	1.13	0.782	0.875	0.977	1.08	1.37	–	1.13	0.798	0.823	0.858	0.87
NCI-H838	0.992	1.03	1.08	0.92	0.826	0.95	0.914	0.538	0.535	0.629	0.498	0.793	0.602	0.622	1.04	1.14	1.09	0.853
NCI-H1755	0.974	0.957	0.939	0.935	0.957	0.953	1	0.756	0.785	0.837	0.962	0.434	0.639	0.74	0.979	0.844	0.916	0.871
HCC-78	0.937	1.04	1.08	1.02	0.749	0.622	0.632	0.372	0.405	0.42	0.394	0.337	0.203	0.225	0.354	0.364	0.297	0.251
IA-LM	0.941	0.865	1.08	0.862	0.979	0.99	1.03	–	0.842	1.11	0.876	0.953	0.416	0.496	0.688	0.823	1.02	1.01
NCI-H322M	0.856	1.09	0.9	0.854	0.847	0.822	0.838	0.495	0.633	1.18	1.22	1.13	0.795	0.871	0.741	0.814	0.781	0.68
NCI-H3122	0.932	0.959	1.04	0.998	1	1.02	1.01	0.756	0.915	0.87	0.989	1.1	0.803	1.09	0.73	0.803	0.834	0.723
COR-L23	0.942	1.03	1.06	1.03	0.808	1.02	1.08	0.845	0.834	0.948	0.945	1.23	0.678	0.828	0.799	0.724	0.944	0.712
NCI-H2087	0.921	0.995	1.03	1.09	0.841	0.996	1.35	0.555	1.08	0.904	0.912	0.831	0.661	1.04	1.15	1.2	1.27	1.05

Cell Line	relative viability ([1]; 0.2 µM)	relative viability ([1]; 0.6325 µM)	relative viability ([1]; 2 µM)	relative viability ([1]; 6.325 µM)	relative viability (AZD6482; 0.08 µM)	relative viability (AZD6482; 0.253 µM)	relative viability (AZD6482; 0.8 µM)	relative viability (AZD6482; 2.53 µM)	relative viability (AZD6482; 8 µM)	relative viability (AZD6482 + Bortezomib; first compound 0.08 µM)	relative viability (AZD6482 + Bortezomib; first compound 0.253 µM)	relative viability (AZD6482 + Bortezomib; first compound 0.8 µM)	relative viability (AZD6482 + Bortezomib; first compound 2.53 µM)	relative viability (AZD6482 + Bortezomib; first compound 8 µM)	relative viability ([2]; first compound 0.2 µM)	relative viability ([2]; first compound 0.6325 µM)	relative viability ([2]; first compound 2 µM)	relative viability ([2]; first compound 6.325 µM)
LC-2-ad	0.929	1.05	1.09	0.955	0.982	0.891	1.07	0.658	0.693	1.07	0.962	1.1	0.754	0.926	0.883	0.89	0.943	0.896
NCI-H1915	0.978	0.908	1.06	0.973	0.996	0.897	1.09	0.893	1.01	0.861	0.86	1.04	0.849	1.05	1.06	0.998	1.1	1.1
NCI-H2023	0.949	0.995	0.93	0.516	0.923	0.881	0.909	0.567	0.662	0.984	0.742	0.874	0.623	0.679	0.661	0.634	0.714	0.331
COR-L 105	0.868	1.08	0.793	0.621	0.825	0.904	0.874	0.577	0.801	0.719	0.893	0.704	0.699	0.791	1.11	0.86	1.08	0.732
RERF-LC-KJ	0.995	0.977	1.04	0.912	0.875	0.888	0.784	0.878	0.763	0.825	0.907	0.895	0.921	0.865	0.905	0.878	0.902	0.661
LXF-289	0.99	0.993	1.04	1	1.01	1.07	1.06	0.93	0.973	0.972	1	1.05	0.845	0.947	1.04	0.964	1.06	0.986
PC-14	0.97	1.05	0.977	0.475	0.953	0.972	1.12	0.849	0.979	0.785	0.917	0.913	0.67	1.02	0.981	0.918	1.05	0.901
NCI-H650	0.973	0.935	1.09	0.862	1.07	–	0.92	0.653	0.685	0.895	–	0.927	0.424	0.57	1.06	0.997	1.18	1
NCI-H1666	0.948	1.05	0.947	0.903	0.842	0.95	0.984	0.853	1.05	0.515	0.765	0.737	0.556	0.616	0.924	0.993	0.951	0.461
NCI-H2085	1.01	1.02	0.992	0.965	0.801	0.675	0.588	0.4	0.384	0.824	0.659	0.766	0.393	0.458	1.06	0.972	1	0.799
NCI-H1734	0.967	0.876	0.889	0.855	0.905	0.907	1.04	0.611	0.795	0.791	0.893	0.977	0.525	0.556	0.657	0.613	0.798	0.736
NCI-H2126	0.996	1.02	0.998	0.926	0.916	0.94	0.891	0.585	0.654	1.12	1.09	1.1	0.851	0.786	0.83	0.734	0.761	0.717
EMC-BAC-2	1.14	0.981	0.996	1.04	0.976	0.898	1.01	0.722	0.748	1.02	1.07	1.12	0.838	0.948	0.765	0.69	0.784	0.77
NCI-H1993	0.879	1.18	0.912	0.905	0.68	0.792	0.631	0.557	0.676	0.848	0.94	–	–	0.852	0.668	0.637	0.692	0.662
NCI-H520	1.02	0.912	1.02	0.736	0.713	0.627	0.623	0.208	0.337	0.489	0.223	0.481	–	0.306	0.947	0.98	0.867	0.452
NCI-H647	0.872	1.06	1.04	0.764	0.797	0.564	0.859	0.513	0.646	0.784	–	0.777	0.582	0.771	1.12	1.13	1.18	0.448
NCI-H1792	0.821	1.06	0.952	1.11	0.753	0.758	0.878	0.412	0.496	0.856	0.859	0.991	0.677	0.483	0.725	0.74	0.717	0.737
